# What was measured:
# Type in all cases: cell-based
# [1] = target: T1, PPARγ (Homo sapiens, UniProt P37231); experiment: Gal4-hybrid reporter gene assay PPARγ; details: mean ± S.E.M., n ≥ 3
# T1 construct: expressed in transfected cells; host or cells: HEK293T
# T1 sequence (P37231 238-503 limits assumed): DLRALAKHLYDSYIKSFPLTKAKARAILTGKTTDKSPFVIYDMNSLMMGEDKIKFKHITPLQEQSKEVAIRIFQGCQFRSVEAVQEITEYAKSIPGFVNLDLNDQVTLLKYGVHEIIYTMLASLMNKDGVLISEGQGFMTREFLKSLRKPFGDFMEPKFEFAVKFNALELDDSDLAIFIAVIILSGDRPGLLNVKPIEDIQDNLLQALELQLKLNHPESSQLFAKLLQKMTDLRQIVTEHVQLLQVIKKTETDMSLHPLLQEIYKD
# Method: (§1) NR modulation was determined as described previously[45] in Gal4 hybrid reporter gene assays in HEK293T cells (German Collection of Microorganisms and Cell Culture GmbH, DSMZ) using pFR-Luc (Stratagene, La Jolla, CA, USA; reporter), pRL-SV40 (Promega, Madison, WI, USA; internal control) and the hybrid receptor clones pFA-CMV-hTHRα-LBD,[46] pFA-CMV-hPPARγ-LBD,[47] pFA-CMV-hFXR-LBD,[48] and pFA-CMV-hRXRα-LBD,[49] coding for the hinge region and ligand binding domain of the canonical isoform of the respective NR. Cells were cultured in Dulbecco's modified Eagle's medium (DMEM), high glucose supplemented with 10% fetal calf serum (FCS), sodium pyruvate (1 mM), penicillin (100 U mL^−1), and streptomycin (100 μg mL^−1) at 37 °C and 5% CO2 and seeded in 96-well plates (3 × 10^4 cells per well). After 24 h, medium was changed to Opti-MEM without supplements and cells were transiently transfected using Lipofectamine LTX reagent (Invitrogen, Carlsbad, CA, USA) according to the manufacturer's protocol. Five hours after transfection, cells were incubated with the test compounds in Opti-MEM supplemented with penicillin (100 U mL^−1), streptomycin (100 μg mL^−1) and 0.1% DMSO for 16 h before luciferase activity was measured using the Dual-Glo Luciferase Assay System (Promega) according to the manufacturer's protocol on a Tecan Spark luminometer (Tecan Deutschland GmbH, Crailsheim, Germany). Firefly luminescence was divided by Renilla luminescence and multiplied by 1000 resulting in relative light units (RLU) to normalize for transfection efficiency and cell growth. Fold activation was obtained by dividing the mean RLU of test compound by the mean RLU of the untreated control. All samples were tested in at least three biologically independent experiments in duplicates. For dose–response curve fitting and calculation of EC50 values, the equation “[agonist] vs. response − variable slope (four parameters)” was used in GraphPad Prism (version 7.00, GraphPad Software, La Jolla, CA, USA). For selectivity profiling, the hybrid reporter gene assay was performed with Gal4 fusion receptor plasmids for RARα, PPARα, PPARδ, VDR, CAR and LXRα. The following reference agonists were used: triiodothyronine (1 μM, THR), all-trans retinoic acid (1 μM, RAR), GW7647 (1 μM, PPARα), pioglitazone (1 μM, PPARγ), L165041 (1 μM, PPARδ), calcitriol (1 μM, VDR), CITCO (1 μM, CAR), T0901317 (1 μM, LXR), GW4064 (1 μM, FXR), bexarotene (1 μM, RXR).
# [2] = target: T2, RXRα (Homo sapiens, UniProt P19793); experiment: Gal4-hybrid reporter gene assay RXRα; details: mean ± S.E.M., n ≥ 3
# T2 construct: expressed in transfected cells; host or cells: HEK293T
# T2 sequence (P19793 227-458 limits assumed): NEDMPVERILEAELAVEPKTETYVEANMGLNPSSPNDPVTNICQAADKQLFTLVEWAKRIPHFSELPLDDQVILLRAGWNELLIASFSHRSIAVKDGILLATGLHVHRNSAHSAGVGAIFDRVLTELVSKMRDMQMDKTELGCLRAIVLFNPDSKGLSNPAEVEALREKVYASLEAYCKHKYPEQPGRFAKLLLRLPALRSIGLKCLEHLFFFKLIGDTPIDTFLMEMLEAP
# Method: as §1
# [3] = target: T3, THRα (Homo sapiens, UniProt P10827); experiment: Gal4-hybrid reporter gene assay THRα; details: mean ± S.E.M., n ≥ 3
# T3 construct: expressed in transfected cells; host or cells: HEK293T
# T3 sequence (P10827 128-410 isoform P10827-2 limits assumed): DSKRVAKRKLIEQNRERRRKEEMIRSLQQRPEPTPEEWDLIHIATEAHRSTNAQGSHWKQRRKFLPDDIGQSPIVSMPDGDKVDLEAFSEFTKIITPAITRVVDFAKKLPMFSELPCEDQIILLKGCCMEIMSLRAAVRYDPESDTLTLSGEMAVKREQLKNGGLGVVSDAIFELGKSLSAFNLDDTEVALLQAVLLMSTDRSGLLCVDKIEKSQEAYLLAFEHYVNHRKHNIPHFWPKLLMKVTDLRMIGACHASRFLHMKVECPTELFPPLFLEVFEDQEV
# Method: as §1
# [4] = target: T4, FXR (Homo sapiens, UniProt Q96RI1); experiment: Gal4-hybrid reporter gene assay FXR; details: HEK293T, Gal4-hybrid reporter; Inactive = tested 1–300 μM; mean ± S.E.M., n ≥ 3
# T4 construct: expressed in transfected cells; host or cells: HEK293T
# T4 sequence (Q96RI1 262-486 limits assumed): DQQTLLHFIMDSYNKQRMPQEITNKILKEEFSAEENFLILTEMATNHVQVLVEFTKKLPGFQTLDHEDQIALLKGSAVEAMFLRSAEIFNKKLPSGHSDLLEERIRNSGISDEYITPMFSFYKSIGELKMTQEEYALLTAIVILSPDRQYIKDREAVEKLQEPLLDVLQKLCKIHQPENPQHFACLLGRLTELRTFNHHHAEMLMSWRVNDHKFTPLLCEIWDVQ
# Method: as §1
# [5] = HEK293T, Gal4-hybrid reporter, Inactive = tested 1–300 μM
# [6] = maximum reporter activation vs DMSO (0.1%) treated cells
smiles,measurement,setting,value
CCc1c(C(=O)O)cnn1-c1ccccc1 [compound 78],EC50,[1]; [5],237 ± 37 µM
same,max. fold activation PPARγ,[1]; [6],(6 ± 1-fold)
same,EC50,[2]; [5],166 ± 10 µM
same,max. fold activation RXRα,[2]; [6],(1.6 ± 0.1-fold)
same,EC50,[3]; [5],112 ± 44 µM
same,max. fold activation THRα,[3]; [6],(2.0 ± 0.1-fold)
same,EC50 FXR,[4],Inactive
